Source: patent US20260217698A1 (BEYANG THERAPEUTICS CO., LTD., priority 2022, published 2026)

How the values were obtained:
[1] = target: T1, TIE2 (Homo sapiens, UniProt Q02763); test: Kinase inhibition, Mobility Shift Assay/IMAP, TIE2; format: biochemical
T1 construct: purchased BPS 40270
From the text: (§1) This assay directly monitored the ability of compounds to inhibit kinase phosphorylation by measuring non-phosphorylated and phosphorylated substrates in kinase reactions by using Mobility Shift Assays/IMAP™ analysis.
(§2) Read the conversion ratio data on CaliperEZ Reader II. Convert conversion rates into inhibition ratio data.
(§3) “Min” indicates the readout of the control well without the addition of enzymes; and “Max” indicates the readout of the control well with the addition of DMSO Fit IC50 values with XL Fit excel add-in version […].
(§4) X indicates the log value of compound concentration, and Y indicates the inhibition ratio (% inhibition).

[2] = target: T2, EGFR (Homo sapiens, UniProt P00533); test: Kinase inhibition, Mobility Shift Assay/IMAP, EGFR; format: biochemical
T2 construct: purchased Carna 08-115
From the text: as §1, §2, §3, §4

[3] = target: VEGFR2 (Homo sapiens, UniProt P35968); test: Kinase inhibition, Mobility Shift Assay/IMAP, VEGFR2; format: biochemical; parameters: purchased Carna 08-191
From the text: as §1, §2, §3, §4

[4] = system: melanin; test: Binding capacity of compounds to melanin; format: in vitro ADME, cuttlefish (Sepia officinalis); settings: cuttlefish (Sepia officinalis), melanin suspension (1 mg/mL); 1 mg/mL melanin in PBS pH 7.4, 2 μM compound, 2 h at 37° C.; read-out: Fu % (percentage of free drug)
From the text: Pigmented eye tissues contain melanin in intracellular melanosomes. Drugs bind to melanin to varying degrees, ranging from non-binding to extensive binding. Therefore, melanin binding is an important feature that affects drug delivery and biodistribution in the eye. The binding capacity of the compound to the melanin must be considered in the development of ophthalmic drugs.
Melanin was derived from the melanin of cuttlefish (Sepia officinalis) and was commercially available from Sigma Aldrich (St Louis, MO).
First, prepare 1 mg/mL melanin suspension with PBS (pH 7.4). As a washing step for the matrix, centrifuge the suspended particles for 5 min at 3000 rpm. Resuspend the resulting particles in a fresh PBS buffer, heat to 37° C. over continuous shaking and incubate it for 1 h. Accurately pipette 2 μL of the test stock solution (0.1 mM) into 98 μL of melanin suspension (1 mg/mL) to achieve a final incubation concentration of 2 μM. Similarly, accurately pipette 2 μL of the stock solution (0.1 mM) to 98 μL of PBS buffer (containing 0.1% BSA) as a blank control sample. Incubate the samples in a shaker (80-90 rpm) for 2 h at 37° C. Then, centrifuge the samples at room temperature. Pipette 50 μL of the supernatant and add 50 μL of precipitant (containing an internal standard). After protein precipitation of all the above samples, centrifuge the samples to collect the supernatants, dilute the supernatants with water (if necessary) and inject them for analysis. At the same time, measure the positive controls, including the high-binding compounds Sunitinib and chloroquine and the low-binding compound celecoxib. Establish an LC-MS/MS method for determining compound concentrations, and calibrate the peak area ratio of analyte/internal standard (Analyte/AIS) in the measured sample by the dilution factor to take it as an alternative concentration for the sample for data processing. The binding rate (Fb) of a compound in melanin was calculated as: […]
Ctest was the concentration of the compound in the melanin-incubated sample or the peak area ratio of the test compound to the internal standard. Ccontrol was the concentration of the compound in the blank control sample or the peak area ratio of the test compound to the internal standard. […]

T2 sequence (P00533 669-1210 limits assumed): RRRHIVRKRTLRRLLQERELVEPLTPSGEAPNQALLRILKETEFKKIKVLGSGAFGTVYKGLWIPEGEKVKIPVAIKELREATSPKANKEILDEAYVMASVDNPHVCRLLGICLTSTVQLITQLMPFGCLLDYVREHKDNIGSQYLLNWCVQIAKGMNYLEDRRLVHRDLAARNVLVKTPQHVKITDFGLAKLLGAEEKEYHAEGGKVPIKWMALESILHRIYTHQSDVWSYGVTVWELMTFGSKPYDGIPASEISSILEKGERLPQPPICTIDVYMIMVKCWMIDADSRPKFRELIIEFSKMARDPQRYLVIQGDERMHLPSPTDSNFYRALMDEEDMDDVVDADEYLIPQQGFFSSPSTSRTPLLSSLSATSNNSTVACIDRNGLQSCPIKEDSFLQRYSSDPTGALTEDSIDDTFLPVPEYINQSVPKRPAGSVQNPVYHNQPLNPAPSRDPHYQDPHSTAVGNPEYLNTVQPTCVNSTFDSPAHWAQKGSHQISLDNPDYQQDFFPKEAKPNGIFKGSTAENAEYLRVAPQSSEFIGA
Chain of VEGFR2 (P35968 790-1356 limits assumed): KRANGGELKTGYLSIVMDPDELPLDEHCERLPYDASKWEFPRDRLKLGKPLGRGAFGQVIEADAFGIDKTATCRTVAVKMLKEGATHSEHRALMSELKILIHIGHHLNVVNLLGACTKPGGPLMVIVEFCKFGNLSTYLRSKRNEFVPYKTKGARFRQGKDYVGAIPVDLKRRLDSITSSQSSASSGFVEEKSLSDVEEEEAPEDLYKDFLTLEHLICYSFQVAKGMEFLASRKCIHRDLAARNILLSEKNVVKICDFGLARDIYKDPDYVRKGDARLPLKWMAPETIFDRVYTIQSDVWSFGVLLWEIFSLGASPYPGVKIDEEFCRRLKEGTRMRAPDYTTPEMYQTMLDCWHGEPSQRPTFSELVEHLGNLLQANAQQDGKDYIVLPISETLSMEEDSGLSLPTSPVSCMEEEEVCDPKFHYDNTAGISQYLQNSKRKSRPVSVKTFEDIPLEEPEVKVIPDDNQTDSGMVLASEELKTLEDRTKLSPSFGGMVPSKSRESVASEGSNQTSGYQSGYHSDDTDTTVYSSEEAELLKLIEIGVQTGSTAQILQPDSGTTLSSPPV
T1 sequence (Q02763 23-1124): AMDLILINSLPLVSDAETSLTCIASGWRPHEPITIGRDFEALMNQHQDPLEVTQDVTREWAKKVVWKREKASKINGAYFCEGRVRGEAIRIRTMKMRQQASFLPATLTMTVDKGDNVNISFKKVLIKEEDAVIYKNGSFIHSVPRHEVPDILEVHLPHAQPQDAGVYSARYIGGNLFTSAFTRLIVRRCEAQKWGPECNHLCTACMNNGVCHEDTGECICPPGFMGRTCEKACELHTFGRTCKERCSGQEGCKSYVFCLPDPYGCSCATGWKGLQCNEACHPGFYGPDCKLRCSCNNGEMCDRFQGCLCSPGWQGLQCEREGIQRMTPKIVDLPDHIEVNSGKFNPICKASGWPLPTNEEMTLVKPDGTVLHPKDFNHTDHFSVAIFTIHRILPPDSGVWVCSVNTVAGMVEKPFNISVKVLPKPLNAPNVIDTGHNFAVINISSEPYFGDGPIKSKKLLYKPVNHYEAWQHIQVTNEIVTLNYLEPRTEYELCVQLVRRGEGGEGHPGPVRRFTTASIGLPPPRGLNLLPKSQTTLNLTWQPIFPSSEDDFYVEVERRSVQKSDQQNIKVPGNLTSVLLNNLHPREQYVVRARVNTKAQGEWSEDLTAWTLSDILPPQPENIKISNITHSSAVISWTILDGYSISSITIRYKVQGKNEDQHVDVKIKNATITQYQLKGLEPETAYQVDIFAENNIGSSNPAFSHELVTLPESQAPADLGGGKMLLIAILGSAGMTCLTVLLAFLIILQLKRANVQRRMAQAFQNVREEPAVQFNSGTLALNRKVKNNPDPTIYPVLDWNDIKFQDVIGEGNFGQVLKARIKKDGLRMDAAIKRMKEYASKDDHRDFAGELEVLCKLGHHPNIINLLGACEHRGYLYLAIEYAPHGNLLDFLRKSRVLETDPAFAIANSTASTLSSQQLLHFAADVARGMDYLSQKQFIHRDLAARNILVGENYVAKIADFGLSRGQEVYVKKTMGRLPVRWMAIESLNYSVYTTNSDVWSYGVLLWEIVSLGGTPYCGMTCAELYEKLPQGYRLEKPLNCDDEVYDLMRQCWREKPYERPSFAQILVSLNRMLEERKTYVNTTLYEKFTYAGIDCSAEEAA

SMILES | IC50 [1] [nM] | IC50 [2] [nM] | IC50 [3] [nM] | fraction unbound at 2 h, 2 μM [4]
NC(=O)c1c(OCc2cc(Cl)c3cncn3c2)nsc1NC(=O)NCCCCN1CCCC1 [Compound T051, 3-((8-chloroimidazo[1,5-a]pyridin-6-yl)methoxy)-5-(3-(4-(pyrrolidin-1-yl)butyl)ureido)isothiazole-4-carboxamide] | 3210 |  |  | 
CN1CCC(CCNC(=O)Nc2snc(OCc3cc(C(=O)NC4CC4)ccc3Cl)c2C(N)=O)CC1 [Compound T139, 3-[[2-chloro-5-(cyclopropylcarbamoyl)phenyl]methoxy]-5-[2-(1-methyl-4-piperidyl)ethylcarbamoylamino]isothiazole-4-carboxamide] | 366 | 10100 | 0.41 | 
NC(=O)c1c(OCc2cc(C(=O)NC3CC3)ccc2F)nsc1NC(=O)NCCC(=O)O [Compound T172, 3-[[4-carbamoyl-3-[[5-(cyclopropylcarbamoyl)-2-fluoro-phenyl]methoxy]isothiazol-5-yl]carbamoylamino]propanoic acid] | 3260 |  | 2.6 | 
COc1cc(OC)c(F)c(COc2nsc(NC(=O)NCCCN3CCN(C)CC3)c2C(N)=O)c1F [Compound T117, 3-[(2,6-difluoro-3,5-dimethoxy-phenyl)methoxy]-5-[3-(4-methylpiperazin-1-yl)propylcarbamoylamino]isothiazole-4-carboxamide] |  | > 60000 | 2.54 | 0.0207
COc1cc(COc2nsc(NC(=O)NCCCCN3CC[C@H](F)C3)c2C(N)=O)cc(OC)c1 [Compound T062, (S)-3-((3,5-dimethoxybenzyl)oxy)-5-(3-(4-(3-fluoropyrrolidin-1-yl)butyl)ureido)isothiazole-4-carboxamide] |  | > 60000 | 58.8 | 0.0195
COc1cc(OC)c(F)c(COc2nsc(NC(=O)NCCCCN3CCCC3)c2C(N)=O)c1F [Compound T137, 3-[(2,6-difluoro-3,5-dimethoxy-phenyl)methoxy]-5-(4-pyrrolidin-1-ylbutylcarbamoylamino)isothiazole-4-carboxamide] |  | > 60000 | 2.1 | 0.0446
NC(=O)c1c(OCc2c(F)cc(Br)cc2F)nsc1Nc1cncc(OCCN2CCCC2)c1 [Compound T045, 3-((4-bromo-2,6-difluorobenzyl)oxy)-5-((5-(2-(pyrrolidin-1-yl)ethoxy)pyridin-3-yl)amino)isothiazole-4-carboxamide] | 230 |  | 22.1 | 
O=C(NCCCN1CC[C@H](F)C1)Nc1snc(OCc2cc(C(=O)NC3CC3)ccc2F)c1C(=O)O [Compound T155, 3-[[5-(cyclopropylcarbamoyl)-2-fluoro-phenyl]methoxy]-5-[3-[(3S)-3-fluoropyrrolidin-1-yl]propylcarbamoylamino]isothiazole-4-carboxylic acid] | > 60000 | > 60000 |  | 
NC(=O)c1c(OCc2cc(C(=O)O)ccc2F)nsc1NC(=O)NCCCN1CC[C@H](F)C1 [Compound T171, 3-[[4-carbamyl-5-[3-[(3S)-3-fluoropyrrolidin-1-yl]propylcarbamylamino]isothiazol-3-yl]oxymethyl]-4-fluoro-benzoic acid] | 5850 | 29100 |  | 
COc1ccc(F)c(COc2nsc(NC(=O)NCCCN3CC[C@@H](F)C3)c2C(N)=O)c1F [Compound T121, 3-[(2,6-difluoro-3-methoxy-phenyl)methoxy]-5-[3-[(3R)-3-fluoropyrrolidin-1-yl]propylcarbamoylamino]isothiazole-4-carboxamide] | 230 | 17200 | 40 | 
NC(=O)c1c(OCc2cc(C(=O)NC3CC3)ccc2F)nsc1NC(=O)NCCCN1CC[C@@H](O)C1 [Compound T106, 3-[[5-(cyclopropylcarbamoyl)-2-fluoro-phenyl]methoxy]-5-[3-[(3R)-3-hydroxypyrrolidin-1-yl]propylcarbamoylamino]isothiazole-4-carboxamide] |  | 20100 | 1.64 | 0.0172
CN1CCN(CCCNC(=O)Nc2snc(OCc3cc(C(=O)NC4CC4)ccc3Cl)c2C(N)=O)CC1 [Compound T140, 3-[[2-chloro-5-(cyclopropylcarbamoyl)phenyl]methoxy]-5-[3-(4-methylpiperazin-1-yl)propylcarbamoylamino]isothiazole-4-carboxamide] |  | 15500 | 0.44 | 0.0726
N#CCCNC(=O)Nc1snc(OCc2cc(C(=O)NC3CC3)ccc2F)c1C(N)=O [Compound T162, 5-(2-cyanoethylcarbamoylamino)-3-[[5-(cyclopropylcarbamoyl)-2-fluoro-phenyl]methoxy]isothiazole-4-carboxamide] | 7360 |  | 3.05 | 
COc1cc(OC)c(F)c(COc2nsc(NC(=O)NCCCCN3CC[C@H](O)C3)c2C(N)=O)c1F [Compound T136, 3-[(2,6-difluoro-3,5-dimethoxy-phenyl)methoxy]-5-[4-[(3S)-3-hydroxypyrrolidin-1-yl]butylcarbamoylamino]isothiazole-4-carboxamide] |  | > 60000 | 1.8 | 0.0285
COc1ccc(Cl)c(COc2nsc(NC(=O)NCCCCN3CCCC3)c2C(N)=O)c1F [Compound T146] | 739 | 26100 | 10.5 | 
COc1ccc(F)c(COc2nsc(NC(=O)NCCC3CCN(C)CC3)c2C(N)=O)c1F [Compound T109, 3-[(2,6-difluoro-3-methoxy-phenyl)methoxy]-5-[2-(1-methyl-4-piperidyl)ethylcarbamoylamino]isothiazole-4-carboxamide] |  | 7450 | 13.8 | 0.0435
NC(=O)c1c(OCc2ccc(F)c(C(=O)NC3CC3)c2)nsc1NC(=O)NCCCN1CCNCC1 [Compound T160, 3-[[3-(cyclopropylcarbamoyl)-4-fluoro-phenyl]methoxy]-5-(3-piperazin-1-ylpropylcarbamoylamino)isothiazole-4-carboxamide] | 4270 |  | 1.41 | 
NC(=O)c1c(OCc2cc(C(=O)NC3CC3)ccc2Cl)nsc1NC(=O)NCCCN1CC[C@H](F)C1 [Compound T166, 3-[[2-chloro-5-(cyclopropylcarbamoyl)phenyl]methoxy]-5-[3-[(3S)-3-fluoropyrrolidin-1-yl]propylcarbamoylamino]isothiazole-4-carboxamide] | 1740 | 15600 | 0.45 | 
NC(=O)c1c(OCc2ccc3c(c2)CCO3)nsc1NC(=O)NCCCCN1CCCC1 [Compound T044, 3-((2,3-dihydrobenzofuran-5-yl)methoxy)-5-(3-(4-(pyrrolidin-1-yl)butyl)ureido)isothiazole-4-carboxamide] | 1640 | 10000 | 128 | 
CN1CCN(CCCNC(=O)Nc2snc(OCc3cccc(C(=O)C4CC4)c3)c2C(N)=O)CC1 [Compound T086, 3-((3-(cyclopropanecarbonyl)benzyl)oxy)-5-(3-(3-(4-methylpiperazin-1-yl)propyl)ureido)isothiazole-4-carboxamide] | 895 | 6830 |  | 
NC(=O)c1c(OCc2cc(C(=O)NC3CC3)ccc2F)nsc1NC(=O)NCCCN1CC[C@H](O)C1 [Compound T105, 3-[[5-(cyclopropylcarbamoyl)-2-fluoro-phenyl]methoxy]-5-[3-[(3S)-3-hydroxypyrrolidin-1-yl]propylcarbamoylamino]isothiazole-4-carboxamide] |  | 11900 | 1.6 | 0.0316
